From patent US10414728B2 (priority 2014, dated 2019)
Where a name gives a salt, the structure may show the parent alone. Read-outs that look alike come from different tables or passages of the source.

Key:
NaV 1.1 to NaV 1.8 = test: Electrophysiology, summary over the NaV panel; type: cell-based, human
Method: (§1) Effects on Human NaV 1.1, NaV 1.2, NaV1.3, NaV 1.4, NaV 1.5, NaV 1.6, NaV 1.7 and NaV 1.8/β3 Sodium Channels Expressed in Mammalian Cells
(§2) CHO cells were stably transfected with human ion channel cDNAs. Stable transfectants were selected by expression with the antibiotic-resistance gene(s) incorporated into the expression plasmid(s). Selection pressure was maintained by including selection antibiotics in the culture medium. CHO cells were cultured in Ham's F-12 supplemented with 10% fetal bovine serum, 100 U/mL penicillin G sodium, 100 μg/mL streptomycin sulfate and appropriate selection antibiotics. Before testing, cells in culture dishes were washed twice with Hank's Balanced Salt Solution (HB-PS) and treated with Accutase for approximately 20 minutes. Immediately before use in IonWorks Barracuda™, the cells were washed in HB-PS to remove the Accutase and re-suspended in HB-PS. All experiments were performed at ambient temperature. […] Duration of exposure to each test article concentration was five (5) minutes. Inhibition of NaV channels was measured using a stimulus voltage pattern. The pulse pattern was repeated before (baseline) and for five (5) minutes after compound addition. Peak current amplitudes were measured for test pulses TP1 (inactivated state inhibition), TP2, TP3 (tonic inhibition) and TP22 (use-dependent inhibition).
(§3) where [C] was the concentration of test article, IC50 was the concentration of the test article producing half-maximal inhibition, N was the Hill coefficient, % VC was the percentage of the current run-down (the mean current inhibition at the vehicle control) and % Block was the percentage of ion channel current inhibited at each concentration of a test article. Nonlinear least squares fits were solved with the XLfit add-in for Excel (Microsoft, Redmond, Wash.).

human NaV 1.8/β3 = target: T1, human NaV 1.8/β3 (Homo sapiens, UniProt Q9Y5Y9); test: Electrophysiology, IonWorks Barracuda, NaV channel block in CHO cells; type: cell-based; details: Nav1.8, CHO cells, 5 min exposure, ambient temperature
T1 construct: expressed in transfected cells; host or cells: CHO
Method: as §1
as §2, with “Peak current amplitudes were measured for test pulses TP1 (inactivated state inhibition), TP2, TP3 (tonic inhibition) and TP22 (use-dependent inhibition).” left out
as §3

human NaV 1.4 = target: T2, human NaV 1.4 (Homo sapiens, UniProt P35499); test: as above; type: cell-based; details: Nav1.4, CHO cells, 5 min exposure, ambient temperature
T2 construct: expressed in transfected cells; host or cells: CHO
T2 sequence (P35499 whole entry): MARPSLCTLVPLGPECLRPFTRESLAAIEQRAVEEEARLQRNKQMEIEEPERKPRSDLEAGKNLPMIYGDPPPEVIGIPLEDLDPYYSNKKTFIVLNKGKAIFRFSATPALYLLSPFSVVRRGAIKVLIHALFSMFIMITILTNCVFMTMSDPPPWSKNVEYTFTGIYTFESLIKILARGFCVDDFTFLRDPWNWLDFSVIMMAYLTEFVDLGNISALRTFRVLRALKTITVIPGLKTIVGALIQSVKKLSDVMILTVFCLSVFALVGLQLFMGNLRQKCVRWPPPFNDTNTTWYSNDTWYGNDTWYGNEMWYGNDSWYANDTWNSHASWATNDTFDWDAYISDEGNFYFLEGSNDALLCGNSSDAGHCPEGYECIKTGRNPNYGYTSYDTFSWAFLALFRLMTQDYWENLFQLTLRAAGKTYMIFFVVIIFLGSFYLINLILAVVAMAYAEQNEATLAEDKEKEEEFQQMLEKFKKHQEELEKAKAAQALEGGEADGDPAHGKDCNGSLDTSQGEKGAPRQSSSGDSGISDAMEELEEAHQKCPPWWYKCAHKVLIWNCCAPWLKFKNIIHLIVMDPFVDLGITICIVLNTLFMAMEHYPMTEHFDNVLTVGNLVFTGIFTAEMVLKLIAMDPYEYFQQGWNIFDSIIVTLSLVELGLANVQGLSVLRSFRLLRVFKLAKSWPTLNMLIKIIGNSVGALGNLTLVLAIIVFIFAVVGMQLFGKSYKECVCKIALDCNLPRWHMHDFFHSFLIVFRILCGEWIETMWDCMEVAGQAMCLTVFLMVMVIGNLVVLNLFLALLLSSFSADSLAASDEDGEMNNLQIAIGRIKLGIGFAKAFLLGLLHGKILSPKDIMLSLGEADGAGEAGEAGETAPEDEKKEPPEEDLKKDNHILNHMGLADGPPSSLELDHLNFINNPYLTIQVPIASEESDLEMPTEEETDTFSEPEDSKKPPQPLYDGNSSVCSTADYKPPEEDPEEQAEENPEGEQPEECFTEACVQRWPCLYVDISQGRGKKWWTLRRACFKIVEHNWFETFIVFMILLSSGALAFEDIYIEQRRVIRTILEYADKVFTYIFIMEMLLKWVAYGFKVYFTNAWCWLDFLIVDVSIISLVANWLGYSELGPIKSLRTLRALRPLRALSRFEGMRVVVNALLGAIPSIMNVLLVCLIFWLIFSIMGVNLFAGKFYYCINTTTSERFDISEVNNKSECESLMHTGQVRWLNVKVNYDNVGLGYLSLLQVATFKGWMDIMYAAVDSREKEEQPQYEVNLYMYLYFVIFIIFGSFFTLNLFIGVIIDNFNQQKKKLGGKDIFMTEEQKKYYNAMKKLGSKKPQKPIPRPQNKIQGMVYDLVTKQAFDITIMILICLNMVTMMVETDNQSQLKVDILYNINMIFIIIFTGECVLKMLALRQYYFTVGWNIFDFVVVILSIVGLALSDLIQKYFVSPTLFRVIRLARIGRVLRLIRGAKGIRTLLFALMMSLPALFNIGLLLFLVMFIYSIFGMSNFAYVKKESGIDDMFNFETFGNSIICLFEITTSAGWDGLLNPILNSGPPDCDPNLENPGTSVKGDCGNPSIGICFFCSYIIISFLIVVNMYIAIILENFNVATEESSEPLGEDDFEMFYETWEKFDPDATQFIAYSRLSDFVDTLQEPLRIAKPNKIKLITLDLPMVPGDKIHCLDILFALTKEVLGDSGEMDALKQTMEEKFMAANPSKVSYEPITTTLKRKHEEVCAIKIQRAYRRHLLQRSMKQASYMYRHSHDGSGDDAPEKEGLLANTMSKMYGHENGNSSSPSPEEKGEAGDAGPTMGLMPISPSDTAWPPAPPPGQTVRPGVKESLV
Method: as §1
as §2, with “Peak current amplitudes were measured for test pulses TP1 (inactivated state inhibition), TP2, TP3 (tonic inhibition) and TP22 (use-dependent inhibition).” left out
as §3

human NaV 1.7 = target: T3, human NaV 1.7 (Homo sapiens, UniProt Q15858); test: as above; type: cell-based; details: Nav1.7, CHO cells, 5 min exposure, ambient temperature
T3 construct: expressed in transfected cells; host or cells: CHO
Method: as §1
as §2, with “Peak current amplitudes were measured for test pulses TP1 (inactivated state inhibition), TP2, TP3 (tonic inhibition) and TP22 (use-dependent inhibition).” left out
as §3

human NaV1.3 = target: T4, human NaV1.3 (Homo sapiens, UniProt Q9NY46); test: as above; type: cell-based; details: Nav1.3, CHO cells, 5 min exposure, ambient temperature
T4 construct: expressed in transfected cells; host or cells: CHO
Method: as §1
as §2, with “Peak current amplitudes were measured for test pulses TP1 (inactivated state inhibition), TP2, TP3 (tonic inhibition) and TP22 (use-dependent inhibition).” left out
as §3

human NaV 1.6 = target: T5, human NaV 1.6 (Homo sapiens, UniProt Q9UQD0); test: as above; type: cell-based; details: Nav1.6, CHO cells, 5 min exposure, ambient temperature
T5 construct: expressed in transfected cells; host or cells: CHO
Method: as §1
as §2, with “Peak current amplitudes were measured for test pulses TP1 (inactivated state inhibition), TP2, TP3 (tonic inhibition) and TP22 (use-dependent inhibition).” left out
as §3

human NaV 1.1 = target: T6, human NaV 1.1 (Homo sapiens, UniProt P35498); test: as above; type: cell-based; details: Nav1.1, CHO cells, 5 min exposure, ambient temperature
T6 construct: expressed in transfected cells; host or cells: CHO
Method: as §1
as §2, with “Peak current amplitudes were measured for test pulses TP1 (inactivated state inhibition), TP2, TP3 (tonic inhibition) and TP22 (use-dependent inhibition).” left out
as §3

human NaV 1.2 = target: T7, human NaV 1.2 (Homo sapiens, UniProt Q99250); test: as above; type: cell-based; details: Nav1.2, CHO cells, 5 min exposure, ambient temperature
T7 construct: expressed in transfected cells; host or cells: CHO
T7 sequence (Q99250 whole entry): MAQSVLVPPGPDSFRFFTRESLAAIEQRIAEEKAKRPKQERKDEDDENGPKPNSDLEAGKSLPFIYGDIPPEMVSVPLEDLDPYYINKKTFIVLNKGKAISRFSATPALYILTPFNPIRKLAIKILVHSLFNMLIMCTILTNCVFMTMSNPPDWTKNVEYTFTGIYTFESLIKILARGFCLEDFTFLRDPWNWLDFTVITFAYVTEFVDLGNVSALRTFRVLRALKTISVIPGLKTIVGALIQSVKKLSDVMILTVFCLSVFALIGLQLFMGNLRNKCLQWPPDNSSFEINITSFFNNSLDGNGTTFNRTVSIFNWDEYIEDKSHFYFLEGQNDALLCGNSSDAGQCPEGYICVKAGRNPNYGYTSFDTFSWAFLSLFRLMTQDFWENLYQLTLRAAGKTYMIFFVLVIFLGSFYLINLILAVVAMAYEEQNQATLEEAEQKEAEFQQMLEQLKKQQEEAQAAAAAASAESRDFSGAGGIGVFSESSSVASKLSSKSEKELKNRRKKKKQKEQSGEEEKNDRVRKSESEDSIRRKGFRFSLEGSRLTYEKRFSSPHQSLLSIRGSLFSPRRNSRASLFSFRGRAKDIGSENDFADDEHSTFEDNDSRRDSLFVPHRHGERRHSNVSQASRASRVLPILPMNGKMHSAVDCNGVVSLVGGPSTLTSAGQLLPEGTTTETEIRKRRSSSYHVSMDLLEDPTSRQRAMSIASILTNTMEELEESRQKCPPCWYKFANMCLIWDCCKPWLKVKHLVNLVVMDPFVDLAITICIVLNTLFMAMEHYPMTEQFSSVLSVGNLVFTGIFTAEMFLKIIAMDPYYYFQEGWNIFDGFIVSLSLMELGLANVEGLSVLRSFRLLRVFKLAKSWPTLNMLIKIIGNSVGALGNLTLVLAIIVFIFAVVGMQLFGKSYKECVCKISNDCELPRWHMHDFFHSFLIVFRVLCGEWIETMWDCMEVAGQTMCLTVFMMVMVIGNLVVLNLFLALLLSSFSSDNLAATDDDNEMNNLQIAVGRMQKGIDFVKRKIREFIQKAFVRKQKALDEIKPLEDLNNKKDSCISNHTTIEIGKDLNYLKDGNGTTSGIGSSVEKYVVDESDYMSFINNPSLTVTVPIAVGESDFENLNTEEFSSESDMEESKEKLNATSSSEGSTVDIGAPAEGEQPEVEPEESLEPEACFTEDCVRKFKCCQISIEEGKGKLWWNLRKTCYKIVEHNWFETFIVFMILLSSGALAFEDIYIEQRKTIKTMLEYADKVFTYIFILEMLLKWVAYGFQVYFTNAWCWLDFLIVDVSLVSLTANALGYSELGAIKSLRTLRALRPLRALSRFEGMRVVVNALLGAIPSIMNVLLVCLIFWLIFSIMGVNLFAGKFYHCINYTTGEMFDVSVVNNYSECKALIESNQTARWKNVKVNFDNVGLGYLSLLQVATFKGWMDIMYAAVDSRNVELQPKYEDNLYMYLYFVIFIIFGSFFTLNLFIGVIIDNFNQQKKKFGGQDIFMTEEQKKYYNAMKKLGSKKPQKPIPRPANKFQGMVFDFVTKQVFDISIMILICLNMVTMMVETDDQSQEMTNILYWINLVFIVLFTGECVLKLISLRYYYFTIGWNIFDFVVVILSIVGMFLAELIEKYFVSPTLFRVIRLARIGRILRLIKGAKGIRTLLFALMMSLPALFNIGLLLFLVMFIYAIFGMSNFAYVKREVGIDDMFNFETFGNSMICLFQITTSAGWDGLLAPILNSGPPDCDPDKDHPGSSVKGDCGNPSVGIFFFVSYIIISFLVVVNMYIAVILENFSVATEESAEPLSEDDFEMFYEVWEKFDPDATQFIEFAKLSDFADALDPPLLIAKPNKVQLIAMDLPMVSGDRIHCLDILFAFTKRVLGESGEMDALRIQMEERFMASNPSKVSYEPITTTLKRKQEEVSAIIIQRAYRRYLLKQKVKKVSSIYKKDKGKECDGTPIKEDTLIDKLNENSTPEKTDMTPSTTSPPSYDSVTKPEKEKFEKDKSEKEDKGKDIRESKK
Method: as §1
as §2, with “Peak current amplitudes were measured for test pulses TP1 (inactivated state inhibition), TP2, TP3 (tonic inhibition) and TP22 (use-dependent inhibition).” left out
as §3

Solubility observation = type: physicochemical; details: DMSO and acetonitrile/water
Method: A solution of methyl biphenyl-4-yl(1,2,5,6-tetrahydropyridin-2-yl)acetate hydrochloride salt (10.0 g, crude) in acetonitrile (40 mL) was charged with Methyl tert.-butyl ether (80 mL) and water (7.0 mL) at room temperature. The reaction mixture was stirred for 10 min at room temperature. The resulted solids were filtered, washed with Methyl tert.-butyl ether (25 mL) and was dried to afford EXAMPLE 1E (Enantiomeric pair consisting of Methyl (2R)-biphenyl-4-yl[(2S)-1,2,5,6-tetrahydropyridin-2-yl]acetate hydrochloride, EXAMPLE 1C, & Methyl (2S)-biphenyl-4-yl[(2R)-1,2,5,6-tetrahydropyridin-2-yl]acetate hydrochloride, EXAMPLE 1D, 3.75 g) as a light brown solid (96.8% HPLC purity, m/z 308 [M+H]+).

human NaV 1.5 = human NaV 1.5 (Homo sapiens, UniProt Q14524); test: Electrophysiology, IonWorks Barracuda, NaV channel block in CHO cells; details: Nav1.5, CHO cells, 5 min exposure, ambient temperature
Method: as §1
as §2, with “Peak current amplitudes were measured for test pulses TP1 (inactivated state inhibition), TP2, TP3 (tonic inhibition) and TP22 (use-dependent inhibition).” left out
as §3

[1] = target: T8, Human recombinant serotonin 5-HT2A receptor (Homo sapiens, UniProt P28223); test: Serotonin-mediated inositol phosphate (IP1) response in CHO-K1 cells; type: cell-based; details: screened at 1 μM, 30 minutes at 37° C.; for inhibition at 1 µM: CHO-K1, read-out: antagonism: inhibition of 0.3 μM serotonin-induced fluorescence response
T8 construct: expressed in transfected cells; host or cells: CHO-K1
T8 sequence (P28223 whole entry): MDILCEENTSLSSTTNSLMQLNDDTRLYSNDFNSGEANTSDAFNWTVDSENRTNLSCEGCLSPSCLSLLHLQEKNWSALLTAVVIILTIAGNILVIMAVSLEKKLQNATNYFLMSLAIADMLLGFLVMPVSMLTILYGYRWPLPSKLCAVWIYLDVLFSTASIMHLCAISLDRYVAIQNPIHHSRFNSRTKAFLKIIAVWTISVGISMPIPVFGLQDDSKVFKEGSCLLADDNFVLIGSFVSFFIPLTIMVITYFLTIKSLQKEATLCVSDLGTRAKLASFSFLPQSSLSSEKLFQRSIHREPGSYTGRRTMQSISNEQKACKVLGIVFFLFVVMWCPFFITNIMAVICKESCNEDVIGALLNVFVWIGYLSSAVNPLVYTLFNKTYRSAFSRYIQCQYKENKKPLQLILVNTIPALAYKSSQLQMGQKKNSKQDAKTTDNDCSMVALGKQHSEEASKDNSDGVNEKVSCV
Method: The 5-HT2 receptor class couples preferentially to Gq/G11 to increase hydrolysis of inositol phosphates and elevate cytosolic [Ca^2+]. Human recombinant serotonin 5-HT2A receptor stably expressed in CHO-K1 cells are used. Test compound and/or vehicle is incubated with the cells (5×10^5/ml) in stimulation buffer of IP1 Tb kit (Cisbio Bioassays) for 30 minutes at 37° C. Test compound-induced increase of fluorescence relative to the 10 μM serotonin response indicate possible serotonin 5-HT2A receptor agonist activity.

sodium channel site 2 = test: Sodium channel site 2 radioligand binding ([3H]Batrachotoxinin); details: rat brain membranes, determined in previous studies
[2] = read-out: IC50 TP2 (inactivated state)

Row | Compound | inhibition to NaV 1.1 to NaV 1.8 (NaV 1.1 to NaV 1.8) | IC50 (human NaV 1.8/β3; IC50 TP1 (tonic)) [µM] | IC50 (human NaV 1.8/β3; IC50 TP2 (inactivated state)) [µM] | IC50 (human NaV 1.4; IC50 TP1 (tonic)) [µM] | IC50 (human NaV 1.4; IC50 TP2 (inactivated state)) [µM] | IC50 (human NaV 1.7; IC50 TP1 (tonic)) [µM] | IC50 (human NaV 1.7; IC50 TP2 (inactivated state)) [µM] | IC50 (human NaV1.3; IC50 TP1 (tonic)) [µM] | IC50 (human NaV1.3; IC50 TP2 (inactivated state)) [µM] | IC50 (human NaV 1.6; IC50 TP1 (tonic)) [µM] | IC50 (human NaV 1.6; IC50 TP2 (inactivated state)) [µM] | IC50 (human NaV 1.1; IC50 TP1 (tonic)) [µM] | IC50 (human NaV 1.1; IC50 TP2 (inactivated state)) [µM] | IC50 (human NaV 1.2; IC50 TP1 (tonic)) [µM] | IC50 (human NaV 1.2; IC50 TP2 (inactivated state)) [µM] | IC50 (human NaV 1.5; IC50 TP1 (tonic)) [µM] | IC50 (human NaV 1.5; IC50 TP2 (inactivated state)) [µM] | agonist activity (increase of fluorescence relative to the 10 μM serotonin response) [1] | inhibition at 1 µM [1] [%] | also measured
1 | COC(=O)[C@H](c1ccc(-c2ccccc2)cc1)[C@@H]1C=CCCN1 (racemic) [EXAMPLE 1E] | showed inhibition | > 30 | 1.1 | > 30 | 1.2 | > 30 | 1.3 | > 30 | 1.3 | > 30 | 1.2 | > 30 | 1.5 | > 30 | 1.5 | > 30 | 1.2 |  |  | solubility (Solubility observation): soluble in DMSO and acetonitrile/water
2 | COC(=O)C(c1ccc(-c2ccccc2)cc1)C1C=CCCN1.Cl (stereo not shown) [EXAMPLE 1, methyl biphenyl-4-yl(1,2,5,6-tetrahydropyridin-2-yl)acetate hydrochloride salt] |  |  |  |  |  |  |  |  |  |  |  |  |  |  |  |  |  | no agonist activity |  | 
3 | COC(=O)[C@H](c1ccc(-c2ccccc2)cc1)[C@@H]1C=CCCN1.Cl [EXAMPLE 1C, Methyl (2R)-biphenyl-4-yl[(2S)-1,2,5,6-tetrahydropyridin-2-yl]acetate hydrochloride] | showed inhibition | > 30 | 1.9 | > 30 | 1.5 | > 30 | 2.5 | > 30 | 2.2 | > 30 | 2.2 | > 30 | 2.1 | > 30 | 3.1 | > 30 | 1.5 | no agonist activity | 30 | 
4 | COC(=O)[C@@H](c1ccc(-c2ccccc2)cc1)[C@H]1C=CCCN1 [EXAMPLE 1D, Methyl (2S)-biphenyl-4-yl[(2R)-1,2,5,6-tetrahydropyridin-2-yl]acetate hydrochloride] | showed inhibition | > 30 | 1.8 | > 30 | 1.3 | > 30 | 2 | > 30 | 2 | > 30 | 2 | > 30 | 2.2 | > 30 | 2.1 | > 30 | 2 | no agonist activity | 37 | 
5 | CCN(CC)CC(=O)Nc1c(C)cccc1C [Lidocaine, reference compound] |  |  |  |  |  |  |  |  |  |  |  |  |  |  |  |  |  |  |  | IC50 (human NaV 1.8/β3; read-out: IC50 TP1 (tonic)): 280 µM; IC50 (human NaV 1.8/β3; [2]): 51.4 µM; IC50 (human NaV 1.4; read-out: IC50 TP1 (tonic)): 389 µM; IC50 (human NaV 1.4; [2]): 162 µM; IC50 (human NaV 1.7; read-out: IC50 TP1 (tonic)): 382 µM; IC50 (human NaV 1.7; [2]): 154 µM; IC50 (human NaV1.3; read-out: IC50 TP1 (tonic)): 555 µM; IC50 (human NaV1.3; [2]): 165 µM; IC50 (human NaV 1.6; read-out: IC50 TP1 (tonic)): 423 µM; IC50 (human NaV 1.6; [2]): 188 µM; IC50 (human NaV 1.1; read-out: IC50 TP1 (tonic)): 543 µM; IC50 (human NaV 1.1; [2]): 465 µM
6 | [3H]Batrachotoxinin |  |  |  |  |  |  |  |  |  |  |  |  |  |  |  |  |  |  |  | Kd (sodium channel site 2): 0.052 µM
